Laboratory results: ChEMBL document CHEMBL3988442, “University of Dundee, Small-Polar-MMV Screening Library” (2021)

Legend:
[1] = microbe, parasite or virus in culture; conditions: Mycobacterium tuberculosis, 96 h, read-out: pIC50 (converted)
[2] = test system: Schistosoma mansoni; assay: High throughput screening of compounds against Schistosoma mansoni motility; format: functional; parameters: dose or concentration left out as unconfirmed
[3] = microbe, parasite or virus in culture; conditions: Mycobacterium tuberculosis, 72 h, read-out: pIC50 (converted)
[4] = In vitro enzyme assay to detect hydrolysis of chlorophenol red-beta-D-[…] directly proportional to the number of Toxoplasma stably expressing beta-galactosidase; format: functional, organism-based, Toxoplasma gondii; conditions: for IC50: Toxoplasma gondii
[5] = biological target: ClpP1P2 (Mycobacterium tuberculosis (strain ATCC 25618 / H37Rv), UniProt P9WPC3+P9WPC5); assay: in vitro assay to detect presence of AMC directly proportional to the activity of ClpP1P2. GHDDI collaboration.; format: functional
ClpP1P2, sequence (P9WPC5 whole entry): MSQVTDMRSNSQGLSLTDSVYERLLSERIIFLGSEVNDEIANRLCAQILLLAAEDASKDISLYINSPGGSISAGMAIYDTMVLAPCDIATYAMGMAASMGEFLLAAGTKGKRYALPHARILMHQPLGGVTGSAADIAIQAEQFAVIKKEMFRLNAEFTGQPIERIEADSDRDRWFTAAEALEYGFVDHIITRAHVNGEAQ
ClpP1P2, sequence (P9WPC3 whole entry): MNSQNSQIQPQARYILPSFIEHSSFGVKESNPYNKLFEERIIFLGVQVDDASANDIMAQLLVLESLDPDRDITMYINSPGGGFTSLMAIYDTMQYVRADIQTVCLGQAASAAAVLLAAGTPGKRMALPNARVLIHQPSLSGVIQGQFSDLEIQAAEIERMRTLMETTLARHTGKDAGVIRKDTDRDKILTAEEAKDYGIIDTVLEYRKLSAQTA

[6] = test system: Plasmodium falciparum; assay: Calibr Malaria Delayed Death Assay SOP; format: functional, organism-based

SMILES | Percent Effect [2] | also measured
O=C(CSc1nncs1)N1CCN(Cc2ccc(Cl)s2)CC1 | -37.37% | IC50 [1]: 41.1 µM; IC50 [3]: 48.2 µM
CC(C)NC(=O)Nc1nc2c(s1)CN(C(=O)NCc1cccs1)CC2 |  | pIC50 [4]: 4.581; IC50 [4]: > 50.1 µM
c1nc(N2CCOCC2)nc2c1COCC21CCN(CC2CC2)C1 (stereo not drawn) |  | pIC50 [4]: < 4.3; IC50 [4]: 44 µM
Cn1nnc2c1C(COCC1CC1)CN(C(=O)Cc1cccs1)C2 (stereo not drawn) |  | pIC50 [4]: 4.541; IC50 [4]: 30.9 µM
COC[C@H]1CCC[C@]12CN(Cc1cccc(C)n1)CCO2 |  | pIC50 [4]: 4.382; IC50 [4]: > 50.1 µM
CCN1C[C@H]2CCN(C(=O)NC)CC[C@H]2S1(=O)=O |  | pIC50 [4]: 4.337; IC50 [4]: > 50.1 µM
CCCNC(=O)CSc1nnc2[nH]c(=O)cc(CC)n12 | -63.88% | 
CCCc1nnsc1C(=O)NCC1CCN(c2ccccn2)CC1 | -128.4% | IC50 [1]: 30.8 µM; IC50 [3]: > 50.1 µM
O=C(NCCN1CCC(c2cccs2)CC1)Nc1cccs1 | -30.63% | 
Cn1c(C(F)(F)F)nn(CCNC(=O)NCc2ccccc2)c1=O | 16.6% | 
CC(C)(C)C(=O)NCCn1ccc(-c2ccncc2)n1 | -55.77% | 
CNC(=O)CS(=O)(=O)C1CCN(S(=O)(=O)c2ccccc2Br)CC1 | -49.15% | 
COC(=O)c1sccc1NC(=O)C1CCCN1C(=O)c1ccco1 (stereo not drawn) | 1.887% | 
CC(Cn1cccn1)NC(=O)Nc1ccc(F)cc1 (stereo not drawn) | -15.2% | 
CC1CCN(CCNC(=O)C2CCN(S(N)(=O)=O)CC2)CC1 | 6.276% | 
CCC(C)NC(=O)Nc1ccc(CN2CCOC2=O)cc1 (stereo not drawn) | 3.949% | 
Brc1cc2c(cc1CN1CCC(N3CCCCC3)CC1)OCCO2 | -13% | IC50 [1]: > 50.1 µM; IC50 [3]: 19.9 µM
Cc1ncsc1C(=O)N1CCCC(c2noc(C(C)C)n2)C1 (stereo not drawn) | -12.34% | 
CN(C)C(=O)CNC(=O)Nc1cccc(Cl)c1SC(F)F | -29.89% | 
COc1ccccc1OCC(=O)Nc1ncccc1Cl | -2.169% | 
O=C(Nc1ccnc(OC2CCOC2)c1)c1cc(F)ccc1F (stereo not drawn) | -26.29% | 
COCCN(Cc1ccc(F)cc1Cl)C(=O)c1ccncc1 | -38.63% | 
O=C(c1ccc(Br)o1)N1CCN(Cc2ccc(OC(F)(F)F)cc2)CC1 | 71.06% | IC50 [1]: 40.6 µM; IC50 [3]: 27.8 µM
NS(=O)(=O)N1CCc2ccc(NC(=O)Cc3ccc(F)cc3)cc21 | -30.69% | IC50 [5]: 27.5 µM

SMILES | Percent Effect [2] | also measured
CCc1nc2n(n1)CC(Nc1cc(C)nc3ncnn13)CC2 (stereo not drawn) | -43.49% | 
O=C(Nc1cccnc1)N1CCC(n2ccc(C(F)(F)F)n2)CC1 | -86.87% | IC50 [1]: > 50.1 µM; IC50 [3]: 1.07 µM
Cc1cnn(CC2CCCN2Cc2coc(-c3ccccc3)n2)c1 (stereo not drawn) | -1.507% | IC50 [1]: > 50.1 µM; IC50 [3]: 22.6 µM
Cc1nc(CN2CCCC(N(C)CCc3cccs3)C2)no1 (stereo not drawn) | -59.95% | 
CN(CCc1cccs1)C1CCCN(Cc2noc(C3CC3)n2)C1 (stereo not drawn) | -35.96% | IC50 [1]: > 50.1 µM; IC50 [3]: > 50.1 µM
c1cc(C2CCCN2Cc2nnnn2C2CC2)cs1 (stereo not drawn) | -76.39% | 
O=C1CCCCN1Cc1cccc(NC(=O)N2CCSCC2)c1 | 22.51% | 
COc1ccc(OC)c(CNCCc2cc(F)cc3c2OCOC3)c1 | 89.81% | 
CCc1cnc(CN(C)C2CCN(CCS(C)(=O)=O)C2)o1 (stereo not drawn) | -9.705% | 
COC(=O)CS(=O)(=O)CCC(=O)N1CCCC1c1ccsc1 (stereo not drawn) | -22.42% | 
CC(C)c1n[nH]c(C2CN(C(=O)CCCn3cccn3)CCO2)n1 (stereo not drawn) | 21.88% | 
COc1ccc(C2CCCN2S(=O)(=O)N(C)CC(C)C)cc1 (stereo not drawn) | 29.94% | IC50 [1]: 13.2 µM; IC50 [3]: 31.2 µM
O=C(CN1CCCC1Cn1cncn1)NC(C1CC1)C1CC1 (stereo not drawn) | -24.22% | 
CCc1ncncc1C(=O)NCCN1CCC(C)CC1 | -31.56% | 
Cc1cc(NC(=O)CN2CCCC2c2noc(C3CC3)n2)no1 (stereo not drawn) | -30.12% | 
C1CC1c1nsc(N2CCN(C3CC3)CC2)n1 | -51.78% | 
OCC1CCCN1c1cc(NCCc2c[nH]c3ccccc23)ncn1 (stereo not drawn) | 50.05% | IC50 [1]: 12.9 µM; IC50 [3]: 21.4 µM
Cc1nc(C)n(CC2CCCN2CC(=O)NCc2ccco2)n1 (stereo not drawn) | -29.3% | 
CCCNC(=O)N1CCC(Oc2cc(C)ccc2F)(C(=O)O)CC1 | 27.97% | 
CN(C)Cc1nnc(C2CCN(c3nccc(N)n3)CC2)n1C1CC1 | -22.89% | 
CC(C)NC(=O)[C@@H]1C[C@H](N)CN1C(=O)c1cc2c([nH]c1=O)CCCC2 | -18.08% | 
CCCC(C)CN1CCC(n2cc(CCCO)nn2)CC1 (stereo not drawn) | -31.48% | 
CCN1CC2(CCC1=O)CCN(C(=O)c1ccc(Cl)cc1O)CC2 | -8.652% | 
Cc1cc(CC(=O)N2CCN(CC3CC3)[C@@H]3CS(=O)(=O)C[C@@H]32)ccc1F | 11.19% | 

SMILES | Percent Effect [2] | also measured
Cc1cc(C[C@@H]2COC[C@@H]2NC(=O)CN2CCCN(C)CC2)on1 | -19.51% | 
Cc1cc(-c2nnc(SCC(=O)O)n2C(C)c2ccccc2)nn1C (stereo not drawn) | -38.23% | 
COc1cccc(OCc2cc(C(=O)NC[C@H]3CCCN3)n[nH]2)c1 | -4.692% | 
COc1cc(CN2CCN(c3cccc(OC)c3)C(=O)C2)cc(OC)c1 | -47.17% | 
O=C(c1cc(=O)[nH]c(=O)[nH]1)N1CCCCC1c1ccc(F)cc1 (stereo not drawn) | -6.768% | 
COc1ccccc1[C@@H]1CN(Cc2cc(C(C)(C)C)[nH]n2)C[C@H]1C(=O)O | 42.17% | 
CC(C)NC(=O)[C@@H]1C[C@H](N)CN1C(=O)c1cc2ccccc2[nH]c1=O | -4.577% | 
CCc1cc(N[C@H]2CC[C@H](O)CC2)n2nc(C)c(C)c2n1 | 12.6% | 
CC(CN1CCOCC1)NCC1CCN(c2cnn(C)c(=O)c2)CC1 (stereo not drawn) | 33.93% | 
COc1ccccc1[C@@H]1CN(C(=O)c2csc(C)n2)C[C@H]1C(=O)O | 18.41% | 
CN(Cc1nccs1)c1nc(-c2ccccn2)nc2c1CCNCC2 | -21.71% | pIC50 [6]: 6.065; IC50 ([6]; Plasmodium falciparum): 0.882 µM
CCc1ccccc1CN1CC[C@@H](NC(=O)c2cccnc2)[C@H](O)C1 | -49.14% | 
Cn1ncc2c(NCCC34CCCN3CCC4)nc(C3CCCC3)nc21 | 79% | IC50 [1]: 26.8 µM; IC50 [3]: 42.3 µM
O=C(CCc1ccc(=O)[nH]n1)N1CCCC(COc2ccc(F)cc2)C1 (stereo not drawn) | 4.924% | 
CC(C)N1CCC(N2CCN(C3CCC3)CC2CCO)CC1 (stereo not drawn) | 7.869% | 
CCc1c(C)sc(NC(=O)CN2CCN(CC)CC2)c1C(=O)OC | 98.89% | IC50 [1]: 15.4 µM; IC50 [3]: 2.52 µM
CCN(c1ccc(C(=O)N2CCCC2)cc1)S(=O)(=O)CC | 5.771% | 
CC(COc1ccccc1)NCc1nc(-c2cccnc2)no1 (stereo not drawn) | -35.35% | 
O=C(NC1CCCC1)N1CCCC(c2nccn2Cc2ccncc2)C1 (stereo not drawn) | -2.761% | IC50 [1]: > 50.1 µM
Cc1cc(N(C)Cc2cc(C)on2)n2nc(C)c(C)c2n1 | -4.677% | IC50 [1]: 33.7 µM; IC50 [3]: 13.5 µM
CC[C@@]1(O)CCN(C(=O)c2ccsc2)C[C@H]1O | -27.08% | 
CC(C)C(=O)NCCNc1nccc(-c2cc(C(=O)O)ccn2)n1 | 19.02% | 
